Experimental data published in ChEMBL document CHEMBL3297683.
Activity calls are given as the source filed them. No cut-off for these calls is given here.

How the values were obtained:
[1] = biological target: Lactoylglutathione lyase (Homo sapiens) (UniProt Q04760); experiment: Inactivation of human GLO1 expressed in Escherichia coli JM103 at 4.7 to 80.6 uM after 5 to 180 secs
[2] = biological target: Lactoylglutathione lyase (Homo sapiens) (UniProt Q04760); experiment: Competitive inhibition of human GLO1 expressed in Escherichia coli JM103 at 0.1 to 0.7 mM by Dixon plot analysis

Sequence of Lactoylglutathione lyase (Homo sapiens) (Q04760 2-184 limits assumed): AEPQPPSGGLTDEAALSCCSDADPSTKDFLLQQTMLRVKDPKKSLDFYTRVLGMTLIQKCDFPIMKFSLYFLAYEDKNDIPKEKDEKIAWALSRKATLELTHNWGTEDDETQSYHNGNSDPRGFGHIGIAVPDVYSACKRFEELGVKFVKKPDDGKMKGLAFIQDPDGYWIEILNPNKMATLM

Activity [1]: Active
inhibition [2]: inactive
SMILES: N[C@@H](CCC(=O)N[C@@H](CSCC(=O)OCCCCOC(=O)CBr)C(=O)NCC(=O)O)C(=O)O
